This experiment has as its system α-SMA in CD148-deficient (Ptprj−/−) lung fibroblasts. In words: α-SMA western blot in CD148-deficient lung fibroblasts with PI3K/mTOR inhibitors. It is filed as cell-based, mouse. To be noted: CD148-deficient cells, TGF-β1 10 ng/ml; wortmannin 50 nM or rapamycin 1 μM, 24 h. Here is the method: FIG. 3. CD148 deficiency enhances PI3K/Akt/mTOR signaling which results in low autophagy, high p62 expression in lung fibroblasts. (A) Mouse lung fibroblasts were isolated from Ptprj^fl/fl Col1a2^Cre-ER(T)+/0 mice (Ptprj−/−) and Col1a2^Cre-ER(T)+/0 mice (WT) and then treated with 4-OHT (1 μM) for 24 h. After 4-OHT treatment, cells were exposed to TGF-β1 (10 ng/ml) for 24 h. After stimulation, cells were harvested, and the expression of p-p85 (Tyr458), p-Akt (Ser473), pmTOR (Ser2448), p-p70 S6 kinase (Thr389), p-S6 ribosomal protein (Ser235/236) and CD148 (n=4 for each condition) in lysates was determined by Western immunoblotting and corresponding densitometry (ImageJ software). Data were normalized to corresponding dephospho-forms or GAPDH. (B) WT and Ptprj−/− cells were stimulated with TGF-β1 (10 ng/ml) for 24 h. Then cells were lysed and LC3-I and -II and p62 were measured by western blot (n=4). […] Then, autophagy flux was measured by LC3-II accumulation in the absence or presence of lysosomal acidification inhibitor chloroquine (25 μM) at 2, 4 and 6 h (n=4). […] LC3 puncta positive cells were quantified using ImageJ (D). […]
Polyacrylamide gel electrophoresis and immunoblotting were performed according to standard methods. […] The signals were detected by ECL (Thermo Fisher Scientific, Waltham, MA). […]
A general note: A western blot detects proteins with antibodies after separation by electrophoresis.

As to `CO[C@H]1C[C@@H]2CC[C@@H](C)[C@@](O)(O2)C(=O)C(=O)N2CCCC[C@H]2C(=O)O[C@H]([C@H](C)C[C@@H]2CC[C@@H](O)[C@H](OC)C2)CC(=O)[C@H](C)/C=C(\C)[C@@H](O)[C@@H](OC)C(=O)[C@H](C)C[C@H](C)/C=C/C=C/C=C/1C` [rapamycin], the “increase of a-SMA in response to TGF-β1” value is “attenuated”.

Consider `COC[C@H]1OC(=O)c2coc3c2[C@@]1(C)C1=C(C3=O)[C@@H]2CCC(=O)[C@@]2(C)C[C@H]1OC(C)=O` [wortmannin], for which the “increase of a-SMA in response to TGF-β1” value was “attenuated”.
